Assay results published in patent US9233138B2, “Compositions for promoting HIV-1 virolysis and methods using same” (Drexel University, priority 2013, dated 2016).
“Also recorded” adds a separate entry of the source. Where two headings read alike, the source gives them in different places.

Columns and labels:
[1] = system: HIV-1 BaL pseudotyped virus
[2] = system: HIV-1 BaL pseudotyped virus; assay type: cell-based; details: for IC50: read-out: IC50, inhibition of HIV-1 BaL viral entry
HIV-1 group M clades = details: read-out: IC50, antiviral activity against all HIV-1 group M clades; cited from earlier work
Env / gp120 = details: cited from earlier work
HIV-1 BaL pseudovirus [3] = details: 100 nM, 10 to 30 min at 37° C., compared with PBS treated virus
Protocol: The compounds were incubated with the HIV-1 BaL pseudovirus for 30 min at 37° C. before fixing the virions with 0.1% paraformaldehyde and loaded onto a holey carbon 200 mesh grid for TEM analysis. The grids were stained with 1% uranyl acetate and loaded onto a JEM 2100 microscope system (JEOL, Japan) operated at 120 kV. Energy-dispersive X-ray (EDX) spectroscopy was conducted on the sample (blue) and the empty mesh (red) in order to confirm assignment of virion particles.
Transmission electron microscopy (TEM) analysis was conducted to assess the morphology of untreated and D4- and D8-treated virions. Pseudotyped HIV-1 BaL was treated with D4 or D8 at 100 nM from 10 to 30 min at 37° C. The samples were then spun for 2 hours at 16,000 rpm in an ultracentrifuge (Eppendorf) at 4° C. The residual virions were fixed using 0.1% paraformaldehyde for 15 min at 4° C. The paraformaldehyde was filtered using a 100 kDa filter (Millipore), and the virions were resuspended in deionized water. The samples were then loaded onto a lacey carbon 200 mesh grid (Pacific Grid Tech), and the grid was then negatively stained using 2% uranyl acetate. Once the grid was dried, the samples were loaded onto a JEM 2100 microscope system (JEOL, Japan) operated at 120 kV. The virus images and the background mesh were evaluated by energy-dispersive X-ray spectroscopy (EDX) in order to confirm identification of virions. […]

HOS.T4.R5 cells [4] = system: HOS.T4.R5 cells
VSV pseudotyped virus [5] = system: VSV pseudotyped virus; parameters: species or system Vesicular Stomatitis Virus
VSV pseudotyped virus [6] = assay type: cell-based, Vesicular Stomatitis Virus
[7] = system: fully infectious HIV-1 BaL; assay: Virolysis assay, p24 leakage ELISA, fully infectious virus; details: FIG. 5; read-out: IC50 for p24 leakage from fully infectious HIV-1 BaL
HIV-1 BaL pseudovirus [8] = details: D4 and D8 50 nM; competitor serial dilution from 0.5 μM
A-MLV pseudotyped virus = assay type: cell-based, Amphotropic Murine Leukemia Virus
HOS.T4.R5 cells [9] = assay: Cytotoxicity assay with WST-1 reagent; parameters: dose or concentration left out as unconfirmed; details: 24 hours post-exposure, FIG. 3

## microvirin [MVN, reference compound]
[1]; FIG. 10C
  virolytic property of MVN-based DAVEI: only exhibited antiviral property
[2]
  antiviral property / infectivity inhibition of MVN-based DAVEI: only exhibited antiviral property
HIV-1 group M clades
  IC50: 2 to 167 nM
Env / gp120
  causes gp120 shedding?: No
  conformationally activates Env?: No

## D4: fusion of CVN and MPER with (Gly4Ser)4-His6 linker: SEQ ID NO:1-(SEQ ID NO:6)4-SEQ ID NO:5-SEQ ID NO:11
[1]; HIV-1 BaL pseudovirus, 30 min incubation, relative to 1% Triton X-100 lysed virus, FIG. 4A, read-out: IC50 for viral leakage (p24 release)
  IC50: 14.2 ± 0.8 nM
[2]
  IC50: 0.58 ± 0.069 nM
HIV-1 BaL pseudovirus [3]
  virion morphology after treatment (TEM): significant morphological differences relative to intact virions
HOS.T4.R5 cells [4]
  cytotoxicity (cell viability, WST-1): No statistically significant differences
VSV pseudotyped virus [5]
  p24 leakage, VSV-envelope control virus: no leakage
VSV pseudotyped virus [6]
  viral entry inhibition, VSV envelope pseudovirus: no significant dose-dependent viral entry inhibition
[7]
  IC50: 200 ± 22 nM

## (G4S)4-MPER [linker(4)-MPER, reference compound]
[1]; non-His-tagged peptide, FIG. 13C
  p24 leakage: Significant p24 leakage
[2]
  virus inactivation accompanying p24 leakage: not associated with equivalent virus inactivation

B1: cyanovirin-N (protein)
chain: LGKFSQTCYNSAIQGSVLTSTCERTNGGYNTSSIDLNSVIENVDGSLKWQPSNFIETCRNTQLAGSSELAAECKTRAQQFVSTKINLDDHIANIDGTLKYE
modifications: cyanovirin-N fragment
HIV-1 BaL pseudovirus [8]
  competition of the virolytic activity of both D4 and D8: observed in a dose-dependent fashion
[1]; at concentrations up to at least 10 μM, FIG. 4A
  leakage of intraviral p24: unable to induce the leakage of intraviral p24
[2]
  IC50: 0.16 ± 0.031 nM
A-MLV pseudotyped virus
  viral entry inhibition, A-MLV envelope pseudovirus: no significant dose-dependent viral entry inhibition
VSV pseudotyped virus [6]
  viral entry inhibition, VSV envelope pseudovirus: no significant dose-dependent viral entry inhibition
HOS.T4.R5 cells [9]
  cytotoxicity (cell viability, WST-1): no significant cytotoxicity; also recorded: No statistically significant differences
Env / gp120
  causes gp120 shedding?: No
  conformationally activates Env?: No
